This note sets out measurements from PubChem BioAssay AID1963870 (Molecular Pharmacology Branch, DTP, NCI, 2024).

The subject of the assay is 292921-168-R-J2-PDC KRAS tumor spheroid viability. In words: Anticancer human tumor 292921-168-R-J2-PDC patient-derived pancreatic carcinoma cell line growth inhibition [KRAS2]. The note with it: spheroids with HUVEC and MSC; for viability, T/C: stronger effect = lower value. Put shortly:
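Combination screen of spheroid viability in tumor-cell co-cultures with endothelial (HUVEC) and mesenchymal stem cell stroma. Each agent was tested in half-log dilutions, topping at clinical Cmax or at 10 microM without a known Cmax.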

Where [1] appears, read: curve of first compound, second compound 0.1 µM.
Where [2] appears, read: curve of first compound, second compound 0.316 µM.
Where [3] appears, read: curve of first compound, second compound 1 µM.
The mark [4] stands for this setting: curve of first compound, second compound 3.16 µM.
The mark [5] stands for this setting: curve of first compound, second compound 10 µM.
Setting [6] is: second compound 0.1 µM, first compound 0.0316 µM.
[7] abbreviates: second compound 0.1 µM, first compound 0.1 µM.
Setting [8] is: second compound 0.1 µM, first compound 0.316 µM.
Setting [9] is: second compound 0.1 µM, first compound 1 µM.
[10] abbreviates: second compound 0.1 µM, first compound 3.16 µM.
[11] abbreviates: second compound 0.1 µM, first compound 10 µM.
Where [12] appears, read: second compound 0.316 µM, first compound 0.0316 µM.
[13] abbreviates: second compound 0.316 µM, first compound 0.1 µM.
Where [14] appears, read: second compound 0.316 µM, first compound 0.316 µM.
Where [15] appears, read: second compound 0.316 µM, first compound 1 µM.
Setting [16] is: second compound 0.316 µM, first compound 3.16 µM.
The mark [17] stands for this setting: second compound 0.316 µM, first compound 10 µM.
[18] abbreviates: second compound 1 µM, first compound 0.0316 µM.
Where [19] appears, read: second compound 1 µM, first compound 0.1 µM.
Setting [20] is: second compound 1 µM, first compound 0.316 µM.
[21] abbreviates: second compound 1 µM, first compound 1 µM.
Where [22] appears, read: second compound 1 µM, first compound 3.16 µM.
[23] abbreviates: second compound 1 µM, first compound 10 µM.
Where [24] appears, read: second compound 3.16 µM, first compound 0.0316 µM.
[25] abbreviates: second compound 3.16 µM, first compound 0.1 µM.
Setting [26] is: second compound 3.16 µM, first compound 0.316 µM.
[27] abbreviates: second compound 3.16 µM, first compound 1 µM.
Setting [28] is: second compound 3.16 µM, first compound 3.16 µM.
[29] abbreviates: second compound 3.16 µM, first compound 10 µM.
Where [30] appears, read: second compound 10 µM, first compound 0.0316 µM.
The mark [31] stands for this setting: second compound 10 µM, first compound 0.1 µM.
Where [32] appears, read: second compound 10 µM, first compound 0.316 µM.
Setting [33] is: second compound 10 µM, first compound 1 µM.
The mark [34] stands for this setting: second compound 10 µM, first compound 3.16 µM.
Where [35] appears, read: second compound 10 µM, first compound 10 µM.

The structures appear in SMILES notation.
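Further: drug exposure lasted seven days after spheroids formed for three days.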
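Wherever viability, T/C is given: percent of DMSO vehicle control viability which is 100%.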

In the case of `COc1cc(Nc2ncc3c(n2)-c2ccc(Cl)cc2C(c2c(F)cccc2OC)=NC3)ccc1C(=O)O` + CNCc1ccccc1-c1csc(C(C)Nc2nc(C)nc3cc(OC)c(OC)cc23)c1, the IC50 under setting [1] is < 0.0316 µM; the IC50 under setting [2] is < 0.0316 µM; the 50% inhibitory concentration (IC50) under setting [3] was < 0.0316 µM; the IC50 under setting [4] was < 0.0316 µM; the 50% inhibitory concentration (IC50) under setting [5] is < 0.0316 µM. For the same molecule, the viability, T/C under setting [6] was 27.9%; the viability, T/C under setting [7] is 24.7%; the viability, T/C under setting [8] is 28.1%; the viability, T/C under setting [9] was 25.4%; the viability, T/C under setting [10] is 22.3%; the viability, T/C under setting [11] was 16.5%. The viability, T/C runs as follows: under setting [12], 25.8%; under setting [13], 22%; under setting [14], 25.9%; under setting [15], 23.9%; under setting [16], 21.1%; under setting [17], 14.9%. Further, the viability, T/C reads like this: under setting [18], 20.6%; under setting [19], 19.1%; under setting [20], 23.1%; under setting [21], 19.4%; under setting [22], 17.6%; under setting [23], 13.4%. Moreover, the viability, T/C under setting [24] was 0.07%; the viability, T/C under setting [25] is 0.05%; the viability, T/C under setting [26] is 0.04%; the viability, T/C under setting [27] was 0.05%; the viability, T/C under setting [28] is 0.08%; the viability, T/C under setting [29] was 0.19%. For the same molecule, the viability, T/C runs as follows: under setting [30], 0.11%; under setting [31], 0.1%; under setting [32], 0.13%; under setting [33], 0.1%; under setting [34], 0.09%; under setting [35], 0.15%.

In the case of `C=CC(=O)N1CCN(c2nc(=O)n(-c3c(C)ccnc3C(C)C)c3nc(-c4c(O)cccc4F)c(F)cc23)C(C)C1` (centres undefined), the IC50 was 5.55 µM [middle of 5 runs] (compound alone, run of 08/26/2021) and 5.47 µM [middle of 6 runs] (compound alone, run of 09/02/2021).

With `CC(C)n1nc(-c2ccc3oc(N)nc3c2)c2c(N)ncnc21` + C=CC(=O)N1CCN(c2nc(OCC3CCCN3C)nc3c2CCN(c2cccc4cccc(C)c24)C3)CC1CC#N, the half-maximal inhibitory concentration (IC50) is, setting by setting: (curve of first compound, second compound 0.0316 µM) 0.00249 µM; under setting [1], 0.00284 µM; under setting [2], 0.00107 µM; under setting [3], < 0.000316 µM; under setting [4], < 0.000316 µM. Further, the viability, T/C (second compound 0.0316 µM, first compound 0.000316 µM) was 78.8%; the viability, T/C (second compound 0.0316 µM, first compound 0.001 µM) was 62.7%; the viability, T/C (second compound 0.0316 µM, first compound 0.00316 µM) is 48.3%; the viability, T/C (second compound 0.0316 µM, first compound 0.01 µM) is 30.8%; the viability, T/C (second compound 0.0316 µM, first compound 0.0316 µM) is 25.3%; the viability, T/C (second compound 0.0316 µM, first compound 0.1 µM) is 21.1%. The viability, T/C (second compound 0.1 µM, first compound 0.000316 µM) was 83.3%; the viability, T/C (second compound 0.1 µM, first compound 0.001 µM) is 70.8%; the viability, T/C (second compound 0.1 µM, first compound 0.00316 µM) is 47.3%; the viability, T/C (second compound 0.1 µM, first compound 0.01 µM) was 31%; the viability, T/C under setting [6] is 21.4%; the viability, T/C under setting [7] is 20.9%. The viability, T/C was 70.2% (second compound 0.316 µM, first compound 0.000316 µM); 50.5% (second compound 0.316 µM, first compound 0.001 µM); 36.9% (second compound 0.316 µM, first compound 0.00316 µM); 28.6% (second compound 0.316 µM, first compound 0.01 µM); 21.6% under setting [12]; 18.5% under setting [13]. For the same molecule, the viability, T/C runs as follows: (second compound 1 µM, first compound 0.000316 µM) 30.9%; (second compound 1 µM, first compound 0.001 µM) 25.5%; (second compound 1 µM, first compound 0.00316 µM) 23.8%; (second compound 1 µM, first compound 0.01 µM) 17.8%; under setting [18], 15.7%; under setting [19], 13.8%. For the same molecule, the viability, T/C by setting is: (second compound 3.16 µM, first compound 0.000316 µM) 1.12%; (second compound 3.16 µM, first compound 0.001 µM) 0.57%; (second compound 3.16 µM, first compound 0.00316 µM) 0.82%; (second compound 3.16 µM, first compound 0.01 µM) 0.33%; under setting [24], 0.47%; under setting [25], 0.73%.

Turning to `CC1(C)CCC(CN2CCN(c3ccc(C(=O)NS(=O)(=O)c4ccc(NCC5CCOCC5)c([N+](=O)[O-])c4)c(Oc4cnc5[nH]ccc5c4)c3)CC2)=C(c2ccc(Cl)cc2)C1` + C=CC(=O)N1CCN(c2nc(=O)n(-c3c(C)ccnc3C(C)C)c3nc(-c4c(O)cccc4F)c(F)cc23)C(C)C1, the half-maximal inhibitory concentration (IC50) by setting is: under setting [1], 2.27 µM; under setting [2], 2.19 µM; under setting [3], 2.02 µM; under setting [4], 1.26 µM; under setting [5], < 0.0316 µM. The viability, T/C is, setting by setting: under setting [6], 107%; under setting [7], 107%; under setting [8], 106%; under setting [9], 100%; under setting [10], 29.5%; under setting [11], 8.37%. Besides, the viability, T/C is, setting by setting: under setting [12], 108%; under setting [13], 111%; under setting [14], 94.3%; under setting [15], 114%; under setting [16], 23.6%; under setting [17], 8.55%. In addition, the viability, T/C is 113% under setting [18]; 106% under setting [19]; 102% under setting [20]; 99.5% under setting [21]; 18.6% under setting [22]; 9.16% under setting [23]. For the same molecule, the viability, T/C runs as follows: under setting [24], 81.5%; under setting [25], 80.8%; under setting [26], 67.8%; under setting [27], 59.8%; under setting [28], 13.9%; under setting [29], 10.9%. Besides, the viability, T/C is 28.4% under setting [30]; 18.8% under setting [31]; 21.6% under setting [32]; 20.5% under setting [33]; 7.43% under setting [34]; 8.6% under setting [35].

As to `Cn1ncnc1[C@H]1c2n[nH]c(=O)c3cc(F)cc(c23)N[C@@H]1c1ccc(F)cc1`, the viability, T/C is 99.3% [middle of 5 runs] (compound 0.000316 µM); 99.4% [middle of 5 runs] (compound 0.001 µM); 93.5% [middle of 5 runs] (compound 0.00316 µM); 89.9% [middle of 5 runs] (compound 0.01 µM); 84.1% [middle of 5 runs] (compound 0.0316 µM); 74.5% [middle of 5 runs] (compound 0.1 µM). Also, the IC50 (curve of compound) was > 0.1 µM.

The term IC50 denotes the concentration at which inhibition is half-maximal. As usually defined, the viability, T/C is the ratio of treated to control.
